SMILES strings stand for the structures.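 Tested at 5 concentrations; 48 h exposure; 96-well plates; endpoints linearly interpolated, else capped at highest concentration. The concentration for 50% growth inhibition is given as GI50.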 Active and inactive are the calls of the source. Cut-off read from the data, not from the text of the source: active = GI50 up to about 1.1 µM and inactive = higher.

Test systems include K562; NCI-H522; HOP-18; SK-OV-3; CCRF-CEM; HL-60; OVCAR-3; A549; 786-0; SF-268; DLD-1; NCI-H23; DMS-273; EKVX; IGROV-1; DMS-114; SW-620; UACC-257; UACC-62; OVCAR-5.
Common to all, as to assay: NCI-60 cell line screen, 48 h

`Cc1cc(O)nc(CNC(=O)c2cccc(C(=O)NCc3cc(O)nc(C)n3)c2)n1`: the GI50 is > 100 µM (inactive) in the assay on K562; > 100 µM (inactive) in the assay with NCI-H522; 68.5 µM (inactive) with HOP-18; > 100 µM (inactive) in the assay on SK-OV-3; > 100 µM (inactive) in the assay with CCRF-CEM; > 100 µM (inactive) in the assay with HL-60. Also, the GI50 in the assay with OVCAR-3, with A549, in the assay with 786-0, in the assay on SF-268, with DLD-1 and in the assay with NCI-H23 was > 100 µM (inactive) throughout. The GI50 with DMS-273, in the assay on EKVX, with IGROV-1, in the assay with DMS-114, in the assay on SW-620 and with UACC-257 was > 100 µM (inactive) throughout. Further, the GI50 with UACC-62 and in the assay on OVCAR-5 was > 100 µM (inactive) each time.

On to `CSC(=N)N1N=C2c3ccccc3CC[C@@H]2[C@@H]1c1ccccc1`, for which the GI50 in the assay with K562 was 6.03 µM (inactive); in the assay on NCI-H522, 14.2 µM (inactive); in the assay with HOP-18 it was 18.5 µM (inactive); in the assay with SK-OV-3, 18.1 µM (inactive); in the assay with CCRF-CEM, 19.3 µM (inactive); with HL-60 it was 10.6 µM (inactive). Also, the GI50 in the assay on OVCAR-3 was 15.8 µM (inactive); in the assay with A549, 17.6 µM (inactive); in the assay with 786-0, 12.9 µM (inactive); with SF-268, 22 µM (inactive); in the assay on DLD-1 it was 12.9 µM (inactive); in the assay with NCI-H23, 15.2 µM (inactive). For the same compound, the GI50 was 15 µM (inactive) with DMS-273; 17.5 µM (inactive) in the assay with EKVX; 14.5 µM (inactive) in the assay on IGROV-1; 13.3 µM (inactive) in the assay on DMS-114; 15.5 µM (inactive) in the assay on SW-620; 18.5 µM (inactive) in the assay on UACC-257. Also, the GI50 with UACC-62 is 17 µM (inactive); in the assay on OVCAR-5, 17.7 µM (inactive).

`Cc1c(C(=O)C/C(=N/NC(=O)C[n+]2ccccc2)C(=O)Nc2ccccc2)[n+]([O-])c2ccccc2[n+]1[O-]`: the GI50 in the assay with K562, in the assay with NCI-H522, with HOP-18, with SK-OV-3, in the assay with CCRF-CEM and in the assay on HL-60 was > 100 µM (inactive) in each case. Also, the GI50 with OVCAR-3, in the assay on A549, in the assay on 786-0, in the assay with SF-268, with DLD-1 and in the assay with NCI-H23 was > 100 µM (inactive) in each case. In addition, the GI50 in the assay with DMS-273, with EKVX, in the assay with IGROV-1, with DMS-114, with SW-620 and in the assay on UACC-257 was > 100 µM (inactive) each time. Also, the GI50 with UACC-62 and in the assay on OVCAR-5 was > 100 µM (inactive) throughout.

Consider `Cc1cccc(C2=C/C(=C(\SS/C(C(=O)c3ccc(OCC(=O)O)c(Cl)c3Cl)=C3\C=C(c4cccc(C)c4)SS3)C(=O)c3ccc(OCC(=O)O)c(Cl)c3Cl)SS2)c1`, for which the GI50 in the assay with K562 was 4.31 µM (inactive); with NCI-H522, 2.12 µM (inactive); in the assay with HOP-18 it was 12.8 µM (inactive); in the assay on SK-OV-3, 36.6 µM (inactive); in the assay with CCRF-CEM, 4.71 µM (inactive); in the assay on HL-60 it was 1.85 µM (inactive). Also, the GI50 in the assay on OVCAR-3 is 14.2 µM (inactive); in the assay on A549 it was 28.8 µM (inactive); with 786-0 it was 20 µM (inactive); in the assay on SF-268 it was 10.8 µM (inactive); with DLD-1 it was 27.4 µM (inactive); with NCI-H23, 12.1 µM (inactive). The GI50 in the assay with DMS-273 was 31.3 µM (inactive); with EKVX, 56.5 µM (inactive); in the assay on IGROV-1, 12.1 µM (inactive); in the assay with DMS-114, 5.42 µM (inactive); in the assay with SW-620, 18.1 µM (inactive); with UACC-257 it was 34.4 µM (inactive). The GI50 in the assay with UACC-62 is 13.8 µM (inactive); in the assay with OVCAR-5, 30.4 µM (inactive).

For the compound `CCC(CO)COC(=O)/C=C/C(=O)OCC(CC)CO` (stereo not given), the GI50 is 48.6 µM (inactive) with K562; > 61.5 µM (inactive) in the assay with NCI-H522; > 100 µM (inactive) in the assay on HOP-18; > 100 µM (inactive) in the assay on SK-OV-3; 27.4 µM (inactive) with CCRF-CEM; 22.1 µM (inactive) in the assay with HL-60. Also, the GI50 with OVCAR-3 was > 62.5 µM (inactive); in the assay with A549, > 100 µM (inactive); in the assay on 786-0, > 100 µM (inactive); in the assay with SF-268, > 84.3 µM (inactive); with DLD-1, > 85.9 µM (inactive); in the assay on NCI-H23, > 84.7 µM (inactive). For the same compound, the GI50 is > 100 µM (inactive) with DMS-273; > 55.5 µM (inactive) with EKVX; > 100 µM (inactive) in the assay on IGROV-1; > 100 µM (inactive) in the assay on DMS-114; > 89.1 µM (inactive) in the assay with SW-620; > 100 µM (inactive) with UACC-257. The GI50 in the assay with UACC-62 was > 72.4 µM (inactive); in the assay on OVCAR-5, > 100 µM (inactive).

As to `C=C1C(=O)OC2C(C)C3C=CC(=O)[C@@]3(C)C(OC(=O)/C(C)=C/C)C1[C@@H]2OC(C)=O` (stereo not given in full), the GI50 in the assay with K562 was 0.374 µM (active); in the assay on NCI-H522 it was 0.131 µM (active); in the assay with HOP-18 it was 1.79 µM (inactive); in the assay with SK-OV-3 it was 1.59 µM (inactive); in the assay on CCRF-CEM, 0.22 µM (active); with HL-60, 0.327 µM (active). The GI50 was 0.26 µM (active) in the assay on OVCAR-3; 1.67 µM (inactive) in the assay with A549; 0.231 µM (active) in the assay on 786-0; 0.673 µM (active) with SF-268; 0.5 µM (active) in the assay with DLD-1; 0.467 µM (active) in the assay on NCI-H23. Besides, the GI50 in the assay with DMS-273 was 0.541 µM (active); with EKVX it was 0.551 µM (active); in the assay with IGROV-1 it was 0.78 µM (active); in the assay with DMS-114 it was 0.861 µM (active); with SW-620 it was 0.257 µM (active); with UACC-257 it was 0.641 µM (active). The GI50 was 0.344 µM (active) in the assay with UACC-62 and 1.88 µM (inactive) in the assay with OVCAR-5.

`CC(=O)O[C@@H]1CC[C@@]2(C)C(=O)C34C[C@@]5(C)C([C@@H](C)CCCC(C)C)CCC5(C)[C@](O)(O3)C(=O)[C@H]4C2C1(C)C` (stereo not given in full): the GI50 with K562 is 9.42 µM (inactive); in the assay on NCI-H522, 12.3 µM (inactive); in the assay with HOP-18 it was 15.8 µM (inactive); with SK-OV-3, 18.3 µM (inactive); with CCRF-CEM, 4.3 µM (inactive); in the assay on HL-60, 10.2 µM (inactive). Also, the GI50 in the assay on OVCAR-3 is 12.3 µM (inactive); in the assay with A549, 13.3 µM (inactive); in the assay with 786-0 it was 12.9 µM (inactive); in the assay on SF-268 it was 15.8 µM (inactive); in the assay with DLD-1, 18 µM (inactive); in the assay with NCI-H23, 13.4 µM (inactive). Besides, the GI50 was 13.4 µM (inactive) with DMS-273; 18.4 µM (inactive) in the assay with EKVX; 15.4 µM (inactive) in the assay on IGROV-1; 17.4 µM (inactive) with DMS-114; 11.5 µM (inactive) in the assay on SW-620; 17 µM (inactive) in the assay with UACC-257. Further, the GI50 in the assay with UACC-62 is 18.2 µM (inactive); in the assay on OVCAR-5, 15.9 µM (inactive).

Consider `COc1c(OC2OC(CO)C(O)C(O)C2O)cc2c(c1OC)-c1ccc(OC)c(=O)cc1C(NC(C)=O)CC2` (stereo not given), for which the GI50 is > 97.3 µM (inactive) in the assay on K562; > 100 µM (inactive) in the assay on NCI-H522; > 100 µM (inactive) with HOP-18; > 100 µM (inactive) in the assay with SK-OV-3; > 100 µM (inactive) in the assay with CCRF-CEM; > 100 µM (inactive) with HL-60. Further, the GI50 was > 89.7 µM (inactive) in the assay on OVCAR-3; > 100 µM (inactive) with A549; > 100 µM (inactive) in the assay with 786-0; > 100 µM (inactive) in the assay on SF-268; > 100 µM (inactive) with DLD-1; > 100 µM (inactive) in the assay on NCI-H23. Also, the GI50 in the assay with DMS-273 is > 100 µM (inactive); in the assay with EKVX it was > 100 µM (inactive); in the assay on IGROV-1, > 84.1 µM (inactive); in the assay with DMS-114, 35.7 µM (inactive); in the assay on SW-620, > 100 µM (inactive); with UACC-257 it was > 100 µM (inactive). For the same compound, the figures for the GI50 with UACC-62 and with OVCAR-5 were 60.1 µM (inactive) and > 100 µM (inactive), respectively.

`COc1c(OC)c(N)c2cc(C)c(=O)c(C)cc2c1N`: the GI50 in the assay on K562 is > 100 µM (inactive); in the assay with NCI-H522, 96.8 µM (inactive); with HOP-18, > 100 µM (inactive); with SK-OV-3 it was > 100 µM (inactive); with CCRF-CEM it was 41.9 µM (inactive); in the assay on HL-60, > 100 µM (inactive). In addition, the GI50 in the assay on OVCAR-3 is > 100 µM (inactive); with A549 it was > 100 µM (inactive); in the assay with 786-0, 64.7 µM (inactive); with SF-268 it was > 100 µM (inactive); in the assay with DLD-1, 55.7 µM (inactive); in the assay with NCI-H23 it was > 100 µM (inactive). The GI50 with DMS-273 is > 100 µM (inactive); in the assay with EKVX, > 100 µM (inactive); in the assay on IGROV-1, > 100 µM (inactive); in the assay on DMS-114, 50.9 µM (inactive); with SW-620, 18.1 µM (inactive); in the assay on UACC-257, > 100 µM (inactive). Further, the GI50 in the assay with UACC-62 and with OVCAR-5 was > 100 µM (inactive) throughout.

On to `COc1nc(OC)nc(Sc2ccc(Sc3ccc(Sc4nc(OC)nc(OC)n4)cc3)cc2)n1`, for which the GI50 with K562, in the assay with NCI-H522, in the assay with HOP-18, in the assay with SK-OV-3, with CCRF-CEM and in the assay with HL-60 was > 100 µM (inactive) in each case. Also, the GI50 in the assay with OVCAR-3, with A549, in the assay with 786-0, with SF-268, with DLD-1 and with NCI-H23 was > 100 µM (inactive) each time. For the same compound, the GI50 in the assay with DMS-273 is > 100 µM (inactive); with EKVX it was > 100 µM (inactive); in the assay on IGROV-1 it was > 100 µM (inactive); in the assay on DMS-114 it was 24.1 µM (inactive); in the assay with SW-620 it was > 100 µM (inactive); in the assay with UACC-257 it was > 100 µM (inactive). For the same compound, the GI50 in the assay with UACC-62 and with OVCAR-5 was > 100 µM (inactive) throughout.

Values taken from ChEMBL document CHEMBL1201862, “PubChem BioAssay data set” (2004).
